The record followed here is patent US9233961B2, “Compounds and compositions for the treatment of parasitic diseases” (Novartis AG, priority 2013, dated 2016).

Assay [1] concerns L. donovani HU3 strain in mouse peritoneal macrophages. Kind of assay: Assay for proliferation of Leishmania parasites in mouse peritoneal macrophages. Type of assay: cell-based, Leishmania donovani. Particulars: Leishmania donovani, Peritoneal macrophage, read-out: L. donavani Macrophage EC50. The method in brief:
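EC50 derives from counting SYBR Green-stained parasite nuclei by high-content imaging after 5 days' compound exposure. Host cells were uninfected BALB/c peritoneal macrophages, infected for 24 h before dosing with spleen-derived L. donovani HU3 parasites from mice infected 9–11 weeks.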

In assay [2] the test system is Trypanosoma cruzi amastigotes (Tulahuen strain) cultured in 3T3 fibroblast cells. Nature of the assay: Assay for proliferation of kinetoplastid parasite Trypanosoma cruzi. Type of assay: cell-based. Particulars: 144 h, read-out: T cruzi EC50. From the text: Assay for Proliferation of Kinetoplastid Parasite Trypanosoma cruzi.
Compounds of the invention can be assayed to measure their capacity to inhibit proliferation of kinetoplastid parasite Trypanosoma cruzi. The screening procedure is for identifying compounds with inhibitor activity against Trypanosoma cruzi amastigotes cultured in 3T3 fibroblast cells. The assay is done using the mammalian stage (amastigotes) of T. cruzi that replicates in the intracellular space of host cells. The host cells are initially infected with the culture-derived trypomastigotes that rapidly invade and then divide as amastigotes. The protocol uses the Tulahuen strain of T. cruzi that has been engineered to express the E. coli beta-galactosidase gene (Lac-Z) (Antimicr. Agents Chemoth. 40:2592, 1996). This allows for a colorimetric readout by using the substrate CPRG and an absorbance plate reader.
3T3 fibroblast cells are re-suspended in RPMI-1640 medium without phenol red medium supplemented with 10% FBS (heat inactivated), 100 μg/ml penicillin, and 100 μg/ml streptomycin. Forty μL of suspension (1,000 cells) is dispensed into 384-well plates and incubated overnight at 37° C. temperature and in atmosphere containing 5% CO2. The following day, 100 nL of compounds of the invention in DMSO are added to plate wells containing 3T3 cells. At the same time control compounds (benznidazole and nifurtimox) and DMSO are added to plates to serve as the positive and negative controls, respectively. After that, 10 μL of media containing 10,000 T. cruzi trypomastigotes are added to each plate well and plates are placed back into incubators. After 6 day incubation, 10 μL of reagent solution (0.6 mM CPRG, 0.6% NP-40 in PBS) is added to plates and incubated at room temperature for 2 hours. Absorbance is then measured on SpectraMax Gemini […] to determine relative number of T. cruzi cells present in each plate well. The percentage inhibition of 50%, EC50, is calculated for each compound. […] Typically, the EC50 is 10 μM or less.

Assay [3] concerns Leishmania donovani axenic amastigote parasites. Nature of the assay: Leishmania donovani axenic amastigote proliferation assay. Type of assay: cell-based. As to conditions: read-out: L. donovani amastigotes EC50. In outline:
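EC50 values come from CellTiter-Glo luminescence after 2-day compound exposure of axenic amastigotes (9600 per well) at 37 °C, 5% CO2. Medium: RPMI 1640, 20% heat-inactivated FBS, folic acid, adenosine, D-glucose, 25 mM MES, adjusted to pH 5.5.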

Assay [4] relates to Trypanosoma brucei Lister 427 strain bloodstream form. Nature of the assay: Assay for proliferation of kinetoplastid parasite Trypanosoma brucei. The class given is cell-based. In outline: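 Bloodstream-form T. brucei Lister 427 in HMI-9 medium was exposed to compound (DMSO vehicle) for 48 hours at 37° C, 5% CO2. Parasite growth was read as ATP by CellTiter-Glo luminescence, with EC50 calculated from percent inhibition.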

The mark [5] stands for this setting: Tulahuen amastigotes in 3T3 fibroblast cells, 6 day incubation.
The mark [6] stands for this setting: Lister 427 bloodstream form, 48 hours, read-out: T. brucei EC50.
Setting [7] is: T. brucei Lister 427, 48 hours, Cell Titer Glo, read-out: EC50.

pEC50: −log10 of the molar value. Where two headings read alike, the source gives them in different places.

Usually pEC50 stands for −log10 of the EC50, conventionally taken in molar units. As for `Cc1cnc2nc(-c3cc(NC(=O)N(C)C4CCCC4)ccc3Cl)[nH]c2c1` [Compound 231], the pEC50 in assay [1] is 4.55; in assay [2] (setting [5]), below 4.70; in assay [3] (axenic amastigotes in vitro), below 4.60; in assay [4] (setting [6]), below 4.63.
For `CS(=O)(=O)c1ccc(-c2cnc3nc(-c4cc(NC(=O)N5CCCC5)ccc4Cl)[nH]c3c2)cc1` [Compound 297] the same measures were 5.26, 5.28, 5.80 and 6.73.
For `COc1ccc(C(=O)Nc2ccc(Cl)c(-c3nc4ncc(C)cc4[nH]3)c2)c(OC)c1` [Compound 147] the same measures were 5.06, 5.62, below 4.60 and 5.44.
Taken in the same sequence, the figures for `Cc1cnc2nc(-c3cc(NC(=O)N4CC(F)(F)C[C@@H]4c4cccc(F)c4)ccc3Cl)[nH]c2c1` [Compound 229] were below 4.30, below 4.70, below 4.60 and below 4.63.
With `COc1ccc(-c2cnc3nc(-c4cc(NC(=O)c5ccco5)ccc4Cl)[nH]c3c2)cn1` [Compound 29, N-{4-chloro-3-[6-(6-methoxypyridin-3-yl)-1H-imidazo [4,5-b]pyridin-2-yl]phenyl}furan-2-carboxamide], the pEC50 is 5.64 in assay [1]; 7.15 in assay [2] (setting [5]); 6.63 in assay [3] (axenic amastigotes in vitro); 7.63 in assay [4] (setting [6]); 7.62 in assay [4] (setting [7]).
On to `Cc1cnc2nc(-c3cc(NC(=O)Cc4ccc(F)cc4)ccc3Cl)[nH]c2c1` [Compound 125], for which the pEC50 was 5.07 in assay [1], 5.02 in assay [2] (setting [5]), below 4.60 in assay [3] (axenic amastigotes in vitro) and 5.00 in assay [4] (setting [6]).
Taken in the same sequence, the figures for `CCN(CC)CCCCCCNC(=O)Nc1ccc(Cl)c(-c2nc3ncc(C)cc3[nH]2)c1` [Compound 227] were below 4.30, below 4.70, below 4.60 and below 4.82.
Regarding `Cc1cnc2nc(-c3cc(NC(=O)CCC(=O)O)ccc3Cl)[nH]c2c1` [Compound 201], the pEC50 in assay [1] is below 4.30; in assay [2] (setting [5]), below 4.70; in assay [3] (axenic amastigotes in vitro), below 4.60; in assay [4] (setting [6]) it was below 4.97.
For the molecule `Cc1cnc2nc(-c3cc(NC(=O)N(C)c4ccccc4)ccc3Cl)[nH]c2c1` [Compound 241], the pEC50 in assay [1] is below 4.32; in assay [2] (setting [5]), 4.98; in assay [3] (axenic amastigotes in vitro) it was 4.85; in assay [4] (setting [6]), 5.01.
For `Cc1cnc2nc(-c3cc(NC(=O)N4CCC(N(C)C)C4)ccc3Cl)[nH]c2c1` (stereo not shown) [Compound 233] the same measures were below 4.30, below 4.70, below 4.60 and below 4.60.
Taken in the same sequence, the figures for `Cc1cnc2nc(-c3cc(NC(=O)c4cccc(N5CCOCC5)c4)ccc3Cl)[nH]c2c1` [Compound 195] were below 4.30, 5.06, 4.67 and 5.11.
For `CCOC(=O)Nc1ccc(Cl)c(-c2nc3ncc(-c4ccc(NC)cc4)cc3[nH]2)c1` [Compound 351] the same measures were 5.43, 6.61, 5.92 and 6.69.
Take `CNC(=O)Nc1ccc(Cl)c(-c2nc3ncc(C)cc3[nH]2)c1` [Compound 238]: the pEC50 in assay [1] was 4.53; in assay [2] (setting [5]), below 4.70; in assay [3] (axenic amastigotes in vitro), below 4.60; in assay [4] (setting [6]) it was 5.04.
Taken in the same sequence, the figures for `Cc1cnc2nc(-c3cc(NC(=O)c4cnc[nH]4)ccc3Cl)[nH]c2c1` [Compound 128] were below 4.30, below 4.70, below 4.60 and below 4.60.
Taken in the same sequence, the figures for `CNc1ccc(-c2cnc3nc(-c4cc(NC(=O)c5cnccn5)ccc4Cl)[nH]c3c2)cc1` [Compound 348] were 6.04, 7.19, 6.60 and 7.62.
For `CCN(C)C(=O)Nc1ccc(Cl)c(-c2nc3ncc(C)cc3[nH]2)c1` [Compound 242] the same measures were 4.59, 5.86, 5.37 and 6.44.
Regarding `Cc1cnc2nc(-c3cc(NC(=O)OC(C)C)ccc3Cl)[nH]c2c1` [Compound 216], the pEC50 in assay [1] is 5.55; in assay [2] (setting [5]) it was 6.15; in assay [3] (axenic amastigotes in vitro), 5.59; in assay [4] (setting [6]), 6.34.
Take `COC(=O)Nc1ccc(-c2cnc3nc(-c4cc(NC(=O)c5ccco5)ccc4Cl)[nH]c3c2)cc1` [Compound 58, methyl N-(4-{2-[2-chloro-5-(furan-2-amido)phenyl]-1H-imidazo[4,5-b]pyridin-6-yl}phenyl)carbamate]: the pEC50 was 6.55 in assay [1]; 7.71 in assay [2] (setting [5]); 7.29 in assay [3] (axenic amastigotes in vitro); 8.29 in assay [4] (setting [6]); 8.30 in assay [4] (setting [7]).
`Cc1cnc2nc(-c3cc(NC(=O)N(C)C4CCOC4)ccc3Cl)[nH]c2c1` (stereo not shown) [Compound 232]: the pEC50 in assay [1] is below 4.30; in assay [2] (setting [5]), below 4.70; in assay [3] (axenic amastigotes in vitro), below 4.60; in assay [4] (setting [6]), below 4.60.
`CC(C)(C)OC(=O)N1CC=C(c2cnc3nc(-c4cc(NC(=O)c5ccco5)ccc4Cl)[nH]c3c2)CC1` [Compound 63]: the pEC50 in assay [1] was 5.80; in assay [2] (setting [5]) it was 6.97; in assay [3] (axenic amastigotes in vitro), 6.25; in assay [4] (setting [6]), 7.66.
Consider `CNc1ccc(-c2cnc3nc(-c4cc(NC(=O)OCCOC)ccc4Cl)[nH]c3c2)cc1` [Example 350, 2-Methoxyethyl N-(4-chloro-3-{6-[4-(methylamino)phenyl]-1H-imidazo[4,5-b]pyridin-2-yl}phenyl)carbamate], for which the pEC50 was 5.90 in assay [1]; 6.29 in assay [2] (TULAHUEN, Fibroblast); 6.17 in assay [3]; 6.10 in assay [4] (48 h, read-out: T. brucei EC50).
For `NC(=O)c1ccc(-c2cnc3nc(-c4cc(NC(=O)c5ccco5)ccc4Cl)[nH]c3c2)cc1` [Compound 19, N-{3-[6-(4-carbamoylphenyl)-1H-imidazo[4,5-b]pyridin-2-yl]-4-chlorophenyl}furan-2-carboxamide], the pEC50 in assay [1] was below 4.30; in assay [2] (setting [5]) it was below 4.70; in assay [3] (axenic amastigotes in vitro), 6.78; in assay [4] (setting [6]) it was 8.24; in assay [4] (setting [7]) it was 8.22.
With `Cc1cnc2nc(-c3cc(NC(=O)c4ccc(F)s4)ccc3Cl)[nH]c2c1` [Compound 185], the pEC50 was below 4.51 in assay [1], 6.02 in assay [2] (setting [5]), 4.95 in assay [3] (axenic amastigotes in vitro) and 5.75 in assay [4] (setting [6]).
On to `Cc1cnc2nc(-c3cc(NC(=O)c4ccc(Cl)s4)ccc3Cl)[nH]c2c1` [Compound 152], for which the pEC50 in assay [1] is 5.35; in assay [2] (setting [5]) it was below 4.94; in assay [3] (axenic amastigotes in vitro), below 4.60; in assay [4] (setting [6]), 5.25.
Taken in the same sequence, the figures for `Cc1cnc2nc(-c3cc(NC(=O)c4ccccn4)ccc3Cl)[nH]c2c1` [Compound 83] were 4.63, 5.89, 5.15 and 6.03.
